Experiments:
[1] = system: HepG2 cells; assay: HepG2 cytotoxicity assay; conditions: HepG2 cytotoxicity unified across screens; >25 set to 25.00
Outline: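 Cells are plated at 2,500 per well on compound-treated plates in MEM containing 10% fetal bovine serum and 1% NEAA, then incubated 48 h at 37°C.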

[2] = system: P. falciparum late stage (stages IV-V) gametocytes; assay: P. falciparum late stage gametocyte ATP depletion assay (Pf GC-ATP); conditions: 1: YES; 0: NO; >10-fold selectivity over cytotoxicity
[3] = system: P. falciparum late stage (stages IV-V) gametocytes; parameters: method as in Almela et al 2016; conditions: P. falciparum late stage gametocyte ATP assay, TCAMS screen; ref Almela et al 2016; read-out: Pf GCT ATP IC50; cited from earlier work

Compound	Unified cytotox [1] [µM]	Is compound selective in assay? Pf GC-ATP active? [2]	IC50 [3] [nM]
CCCCCCCN1CC[C@@H](CCCc2ccnc3ccc(OC)cc23)[C@@H](CCN)C1.O=C(O)C(=O)O [TCMDC-139278]	2.98	1 (1: YES)	270
COc1ccc(COc2cc(NCCCN)nc3ccccc23)cc1 [TCMDC-139286]	13.98	1 (1: YES)	560
O=C(/C=C/c1ccc(Cl)c(Cl)c1)NCCCCCN1CCCC(CNS(=O)(=O)c2cccc(C(F)(F)F)c2)C1 (stereo not drawn) [TCMDC-139597]	3.80	0 (0: NO)	8630
CC(C)CCNC(=O)c1cnc2c(O)cccc2c1Nc1cccc(NC(=O)c2ccc(F)cc2)c1.O=C(O)C(F)(F)F [TCMDC-139606]	5.27	0 (0: NO)	1270
O=C(Nc1ccc(Oc2ccccc2)cc1)N(CCN1CCCC1)Cc1ccc(-c2ccc(CN3CCNCC3)cc2)cc1.O=C(O)C(F)(F)F [TCMDC-139652]	7.08	0 (0: NO)	1020
COc1ccc(CCNC(C)Cc2ccc(C(=O)Nc3ccc(CC(C)NCCc4cccc(Cl)c4)cc3)cc2)cc1 (stereo not drawn) [TCMDC-139750]	2.40	0 (0: NO)	620
CC(CCCC(=O)Nc1ccc(CC(C)NCCc2cccc(Cl)c2)cc1)NCCc1cccc(Cl)c1 (stereo not drawn) [TCMDC-139798]	4.50	0 (0: NO)	820
CC(CCCCC(=O)Nc1ccc(CC(C)NCCc2cccc(Cl)c2)cc1)NCCc1cccc(Cl)c1 (stereo not drawn) [TCMDC-139799]	6.59	0 (0: NO)	1660
CCCCCCCN1CC[C@@H](CCCc2ccnc3ccc(OCC4CCCNC4)cc23)[C@@H](CC)C1.Cl (stereo partly drawn) [TCMDC-139816]	4.18	1 (1: YES)	300
CCCCCCCN1CC[C@@H](CCCc2ccnc3ccc(OCCC4CCNCC4)cc23)[C@@H](CC)C1.Cl [TCMDC-139819]	4.50	1 (1: YES)	420
CCCCCCCN1CC[C@@H](CCCc2ccnc3ccc(OCCCCN/C(N)=N/O)cc23)[C@@H](CC)C1.O=C(O)C(=O)O [TCMDC-139839]	17.20	1 (1: YES)	470
CC(Cc1ccc(COc2ccc(CC(CO)NCCc3cccc(Cl)c3)cc2)cc1)NCCc1cccc(Cl)c1.Cl (stereo not drawn) [TCMDC-139844]	3.50	0 (0: NO)	1390
Cl.O=C(/C=C/c1ccc(Cl)c(Cl)c1)N1CCC(CCN2CCC(c3c[nH]c4cnccc34)CC2)CC1 [TCMDC-140136]	7.21	1 (1: YES)	200
Cc1cccc2[nH]cc(C3CCN(CC4CCC(NC(=O)/C=C/c5ccc(Cl)c(Cl)c5)CC4)CC3)c12.Cl (stereo not drawn) [TCMDC-140137]	2.95	0 (0: NO)	1450
COc1cc(NCC(C)CNCc2cn(Cc3ccccc3)c3ccccc23)nc2ccccc12 (stereo not drawn) [TCMDC-140496]	5.00	0 (0: NO)	1710
CN(C)CCN(Cc1ccccc1-c1ccc(CNCCc2ccccc2)cc1)C(=O)c1ccccc1.O=C(O)C(F)(F)F [TCMDC-140532]	7.54	0 (0: NO)	780
CC(C)CNCc1cccc(-c2cccc(CN(CCCN3CCN(C)CC3)C(=O)/C=C/c3ccccc3)c2)c1.O=C(O)C(F)(F)F [TCMDC-140541]	7.47	1 (1: YES)	560
CN1CCN(CCCN(Cc2cccc(-c3cccc(CNC4CCCC4)c3)c2)C(=O)/C=C/c2ccccc2)CC1.O=C(O)C(F)(F)F [TCMDC-140543]	7.17	0 (0: NO)	800
CC(C)CNCc1cccc(-c2ccc(CN(CCCN3CCN(C)CC3)C(=O)/C=C/c3ccccc3)cc2)c1.O=C(O)C(F)(F)F [TCMDC-140545]	6.65	1 (1: YES)	630
CC(C)CNCc1ccc(-c2ccc(CN(CCCN3CCN(C)CC3)C(=O)/C=C/c3ccccc3)cc2)cc1.O=C(O)C(F)(F)F [TCMDC-140546]	6.99	0 (0: NO)	1000
